Assay results taken from US11957671B2, “Benzodioxane modulators of leukotriene A4 hydrolase (LTA4H) for prevention and treatment of aging-associated diseases” (Alkahest, Inc., priority 2021, dated 2024).

Assays:
[1] = test system: aged wild type (WT; C57BL/6) mice; assay: Y-Maze; type: in vivo, mouse; conditions: 10 mg/kg PO daily
Protocol: A large Y-maze test assessed short-term memory of the familiarity of a specific context. Mice were brought to the experimental room for at least 30 min of acclimation to the experimental room conditions (dim lighting) prior to testing. For the initial training trial, the mouse was placed at the end of one arm of a large Y-maze designated “start arm” (arm length: 15 inches). The third arm of the maze was blocked off, allowing the mouse to explore two of the three arms freely (“start arm” and “familiar arm”) for 5 min. Each arm contained spatial cues. Three hours later, the mouse was placed back into the maze in the “start arm,” and allowed to explore all three arms with the third arm unblocked (“novel arm”). Movements in and out of each arm were tracked using automated tracking software (ANY-maze). Testing was performed under dim lighting, and the apparatus was cleaned with 70% ethanol between trials. The time spent and number of entireties into the “novel arm” and “familiar arm” were analyzed, as well as total distance travelled and velocity as measures of general locomotor activity.
(§1) Three independent cohorts of aged wild type (WT; C57BL/6) mice between twenty to twenty-two months of age (20-22 mo) were homogenized into two (2) groups by body weight, total distance travelled in the open field test, and average velocity in the open field test. Group 1 was administered vehicle control PO daily. Group 2 was administered 10 mg/kg of the LTA4H inhibitor Compound 1 PO daily. Both groups were dosed for either 10 days or 4 weeks daily. Behavioral assays were run during the last week of dosing and animals were sacrificed at the end of the study for histological and molecular assays.

[2] = test system: LTA4H hydrolysis activity in human whole blood; assay: Ex Vivo LTB4 Assay, human blood; type: cell-based; conditions: human whole blood incubated with compound
Protocol: Whole blood was incubated with Compound 1 or vehicle and then a calcium ionophore (Calcimycin, A23187), or 10% DMSO. LTB4 levels in plasma were measured using ELISA.
FIGS. 36-37 report the results of ex vivo target engagement assays with Compound 1 in human and mouse plasma. Whole blood from human or mouse was incubated with vehicle or Compound 1, following by a calcium ionophore stimulation. Plasma was generated and LTB4 levels were measured using ELISA. LTB4 is the product of LTA4H hydrolysis so this assay reports on LTA4H enzymatic activity.

aged C57BL6 mice = assay: Nesting; type: in vivo, mouse; conditions: 10 days of dosing
Protocol: All nesting material was removed from home cage and mice were given 2 fresh nestlets 12-18 hours prior to scoring. The nest was carefully scored on a scale of 0-5 by an experimenter blinded to treatment group: 0 undisturbed, 1 disturbed, 2 flat, 3 cup, 4 incomplete dome, 5 complete dome.

[3] = test system: aged wild type (WT; C57BL/6) mice; assay: qPCR of hippocampal gene expression; type: in vivo, mouse
Description: Brains were collected following saline perfusion and separated by mid-sagittal slice with one-half dissected into hippocampus and cortex and then snap frozen on dry ice. RNA was isolated from brain tissue using the RNAeasy Qiagen Kit according to the manufacturer's instruction, briefly, tissue was homogenized using an Omni Bead Ruptor in RLT buffer, RNA was bound to RNA isolation column, washed and eluted. Contaminating DNA was removed by DNAse digestion and cDNA was generated using the Life Technologies SuperScript III Kit. A master mix for qPCR was made using the appropriate forward and reverse primers, and SYBR green reagent or TaqMan reagent. The reaction was run on a Life Technologies QuantStudio Real-Time PCR System and analyzed using the std ddCT protocol on the QuantStudio6 software.
as §1

LTA4H = LTA4H (Mus musculus (Mouse), UniProt P24527); assay: LTB4 Target Engagement Assay (in vivo dosing, calcimycin stimulated blood); conditions: for LTB4 levels in calcimycin stimulated plasma: aged mice
Sequence of LTA4H (P24527 whole entry): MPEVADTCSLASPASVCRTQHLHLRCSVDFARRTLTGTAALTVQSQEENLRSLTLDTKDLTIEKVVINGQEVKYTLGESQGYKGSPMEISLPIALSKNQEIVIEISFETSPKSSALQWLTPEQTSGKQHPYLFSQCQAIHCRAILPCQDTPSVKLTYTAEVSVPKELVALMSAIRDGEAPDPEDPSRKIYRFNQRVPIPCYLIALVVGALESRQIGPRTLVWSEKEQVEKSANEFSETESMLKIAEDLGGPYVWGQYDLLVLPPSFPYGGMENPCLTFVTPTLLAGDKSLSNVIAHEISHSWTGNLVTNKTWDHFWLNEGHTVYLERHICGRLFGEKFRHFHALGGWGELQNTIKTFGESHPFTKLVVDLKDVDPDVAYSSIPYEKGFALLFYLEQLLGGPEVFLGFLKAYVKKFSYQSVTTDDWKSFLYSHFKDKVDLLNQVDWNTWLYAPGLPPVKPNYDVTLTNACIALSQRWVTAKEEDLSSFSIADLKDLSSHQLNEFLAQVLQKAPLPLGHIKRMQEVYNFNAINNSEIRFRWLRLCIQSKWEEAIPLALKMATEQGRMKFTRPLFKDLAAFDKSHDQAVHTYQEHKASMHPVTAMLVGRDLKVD
Protocol: (§2) Whole blood was collected by cardiac puncture using heparin as an anti-coagulant. 160 μL of whole blood was collected in duplicate for each mouse and incubated for 15 minutes in 37° C./5% CO2. During this time a 0.1 mM calcimycin stock was made by diluting 10 mM calcimycin (Sigma C7522) formulated in DMSO into PBS. Control solution was made by diluting the same volume of DMSO in PBS. Both solutions were sonicated for 10 minutes in a 37° C. water bath. 40 μL of 0.1 mM calcimycin (stimulated) or control solution (unstimulated) was added to each well of whole blood and incubated at 37° C./5% CO2 for 30 minutes. Whole blood was spun for 10 minutes at 1000×g to separate out plasma. LTB4 levels were detected by running an ELISA on the collected stimulated and unstimulated plasma diluted 1:10 (Enzo Life Sciences, ADI-901-068). The ELISA plates were read on a BMG LABTECH CLARIOstar plate reader at 405 nm.
FIGS. 60-62 report the results of in vivo target engagement assays with Compound 1 in mouse plasma. Whole blood from mice dosed with Compound 1 for 10-day FIG. 60 or 4 weeks FIG. 61 was incubated with a calcium ionophore to stimulate LTB4 release. Plasma was generated and LTB4 levels were measured using ELISA. LTB4 is the product of LTA4H hydrolysis so this assay reports on LTA4H enzymatic activity.

[4] = test system: Male C57BL/6 mice aged 20-21 months; assay: Example 15: gene expression and histology, Compound 1 versus SC-57461A; type: in vivo, mouse; conditions: Compound 1 1 mg/kg, SC-57461A 2.5 mg/kg PO bid one month
Protocol: Male C57BL/6 mice aged 20-21 months are treated with Vehicle, Compound 1, or SC-57461A commercially available LTA4H inhibitor. The mice are dosed with Compound 1 at 1 mg/kg or SC-57461A at 2.5 mg/kg PO bid for one month. Mice are anesthetized and blood and tissues are collected for further analysis. Blood is collected via cardiac puncture in syringes pre-filled with Heparin. Brains are collected following ACSF perfusion and processed for single cell RNA sequencing of either labeled endothelial cells (experiment 1) or NeuN-positive neuronal nuclei (experiment 2). In a+ separate cohort of mice, brains are collected following 4% PFA perfusion for histological endpoints (experiment 3).

LTA4H hydrolase activity = LTA4H hydrolase activity (Mus musculus (Mouse), UniProt P24527); assay: Pharmacodynamic analysis of plasma LTB4 after a single dose; type: in vivo
Sequence of LTA4H hydrolase activity (P24527 whole entry): as above
Protocol: as §2

aged mice = assay: CA1 synapse density by histology; type: in vivo, mouse; conditions: preliminary data, pre- and post-synaptic protein staining

O=C(O)C1CCN(Cc2ccc([C@H]3COc4ccccc4O3)cc2)CC1 [Example 1, 1-{4-[(2S)-2,3-dihydro-1,4-benzodioxin-2-yl]benzyl}piperidine-4-carboxylic acid]
entries into the N and F arms during testing ([1]; after 12 days of treatment): enter the N and F arms equally
percent time spent in the novel (N) or familiar (F) arms during testing ([1]; after 12 days of treatment): significantly more time in the novel arm
percent time spent in the novel (N) or familiar (F) arms during testing ([1]; after 18 days of treatment): significantly improved
percentage of entries into the N and F arms ([1]; after 18 days of treatment): enter the novel arm significantly more than the familiar arm
percentage of entries into the N and F arms ([1]; after 26 days of treatment): enter the novel arm significantly more than the familiar arm
LTB4 plasma levels after calcium ionophore stimulation [2]: reduces LTB4 plasma levels to unstimulated levels
nesting building score (aged C57BL6 mice): no change in nesting building score
dcx hippocampal gene expression ([3]; 4 weeks of dosing): increased dcx hippocampal gene expression
h2d1 hippocampal gene expression ([3]; 10 days and 4 weeks of dosing): trends towards reduced h2d1 hippocampal gene expression
creb1 hippocampal gene expression ([3]; 10 days of dosing): increased creb1 hippocampal gene expression
egr1 hippocampal gene expression ([3]; 10 days of dosing): increased egr1 hippocampal gene expression
iba1 hippocampal gene expression ([3]; 10 days of dosing): trends towards reduced iba1 hippocampal gene expression
il1b hippocampal gene expression ([3]; 10 days of dosing): trends towards reduced il1b hippocampal gene expression
LTB4 levels in calcimycin stimulated plasma (LTA4H; 4 weeks of dosing): inhibition of LTA4H
LTB4 levels in calcimycin stimulated plasma (LTA4H; 10 days of dosing): inhibition of LTA4H
LTB4 inhibition, compound made for 3 independent studies (LTA4H; young mice, 2 hours after a single dose): no difference in the amount of inhibition across the 3 independent studies
endothelial gene expression in brain compared to SC-57461A [4]: more robust change in endothelial gene expression
histology of endothelial cells and neurons compared to SC-57461A [4]: more robust changes in histology
neuronal gene expression in brain compared to SC-57461A [4]: more robust change in neuronal gene expression
calcimycin stimulated plasma LTB4 levels (LTA4H hydrolase activity; single 1 mg/kg oral dose, multiple timepoints, C57BL/6 mice): reduction in the pharmacodynamic readout of calcimycin stimulated plasma LTB4 levels
plasma LTB4 levels, dose response (LTA4H hydrolase activity; single dose 0.3, 0.1 or 0.03 mg/kg, 6 hours post dosing): dose response in the pharmacodynamic readout of plasma LTB4 levels
synapse density in the CA1 region of the hippocampus (aged mice): trends towards increasing synapse density
